Data on six compounds can be found in US20240209028A1, “CNP COMPOUNDS” (priority 2022, published 2024).

Values after ≈ are worked out from the molar mass of the structure shown. Where two headings read alike, the source gives them in different places. Starred links: 1 amine or outer side, 2 acyl side, 3 side chain; linkers in the order of their positions; H or OH if unused. Positions of bridges follow the written chain, without caps; N, C: chain ends. Residues, ends and D or L forms follow the SMILES beside them. *: point of attachment. C18 diacid = O=C(O)CCCCCCCCCCCCCCCCC(=O)*; γGlu = O=C(O)[C@H](CCC(=O)[*:2])N[*:1]; AEEA = NCCOCCOCC(=O)O

Common to all, as to format: physicochemical
Data set [1] can be described thus: Solubility of CNP compounds at pH 4.0 and pH 6.5. The essentials:
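Supernatant peptide concentration was quantified by CAD after overnight room-temperature equilibration of incompletely dissolved samples. Nominal loading was ≥4000-5000 nmol/mL. Media were pH 4.0 sodium acetate 5 mM/glycerol 250 mM, or pH 6.5 sodium phosphate 8 mM/glycerol 23 mg/mL reached by stepwise NaOH addition.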

The nature of data set [2]: Thioflavin T (ThT) assay: lagtime and peptide recovery. As to conditions: assay terminated after 45 hours; for LagTime (h) at pH 6.5: ThT assay, pH 6.5, 37° C.; for LagTime (h) at pH 4.0: ThT, 37° C., shaking. Put shortly:
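ThT (final about 1 μM) was added to peptide supernatants at pH 4.0 and 6.5 and incubated at 37 °C with orbital shaking for 45 h. Fluorescence (ex 444/em 485 nm) was read every 20 min, and lag-time was taken as the time to onset of signal rise. Recovery is the RP-UPLC (215 nm) total peak area after vs. before incubation.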

The nature of data set [3]: High-Molecular-Weight-Protein (HMWP) formation by SEC-UPLC. The note with it: increase over two weeks at 37° C. The essentials: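 Formulations at pH 4.0 or 6.5 incubated quiescently for two weeks at 37 °C; HMWP (peaks eluting before monomer, % of total peptide area) measured by SEC-UPLC, pH 2.4 mobile phase with 50% isopropanol, 50 °C, UV 215 nm. Value is HMWP increase, normalized to two weeks if needed.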
Background: In gel filtration, larger molecules generally elute earlier.

The mark [4] stands for this setting: 8 mM sodium phosphate, 23 mg/mL glycerol, pH 6.5, room temperature, read-out: Solubility at pH 6.5.
Setting [5] is: 5 mM sodium acetate, 250 mM glycerol, pH 4.0, room temperature, read-out: Solubility at pH 4.0.

In general, solubility refers to the concentration that dissolves in the medium under given conditions. As for `CC[C@H](C)[C@@H]1NC(=O)[C@H](CCCNC(=N)N)NC(=O)[C@H](CC(=O)O)NC(=O)[C@H](CC(C)C)NC(=O)[C@@H]2CCCN2C(=O)[C@H](CC(C)C)NC(=O)CNC(=O)[C@H](Cc2ccccc2)NC(=O)[C@@H](NC(=O)CNC(=O)[C@H](CCC(N)=O)NC(=O)[C@H](CO)NC(=O)[C@H](CC(C)C)NC(=O)CNC(=O)[C@H](CCCCN)NC(=O)[C@H](CCCCN)NC(=O)[C@H](CCC(N)=O)NC(=O)[C@H](C)NC(=O)CNC(=O)[C@H](CCCCN)NC(=O)[C@H](Cc2ccc(O)cc2)NC(=O)[C@H](CCCCN)NC(=O)[C@H](CCCNC(=N)N)NC(=O)[C@H](C)NC(=O)COCCOCCNC(=O)COCCOCCNC(=O)CC[C@H](NC(=O)CC[C@H](NC(=O)CC[C@H](NC(=O)CC[C@H](NC(=O)CC[C@H](NC(=O)CCCCCCCCCCCCCCCCC(=O)O)C(=O)O)C(=O)O)C(=O)O)C(=O)O)C(=O)O)CSSC[C@@H](C(=O)O)NC(=O)CNC(=O)[C@H](CC(C)C)NC(=O)CNC(=O)[C@H](CO)NC(=O)[C@H](CC(C)C)NC(=O)[C@H](CO)NC(=O)CNC1=O` [compound 1453] ({C18 diacid-γGlu-γGlu-γGlu-γGlu-γGlu-AEEA-AEEA}-ARKYKGAQKKGLSQGCFGLPLDRIGSLSGLGC-OH; disulfide 16-32), the solubility in data set [1] (setting [4]) came out at 7.88 mM (≈ 35.8 mg/mL). Also, in data set [2], the “LagTime (h) at pH 6.5” value is listed as 45 h. Besides, the “2-Week HMWP formation at pH 6.5 (%), % relative to total peak area” value in data set [3] was found to be 3.94%.

As for `CC[C@H](C)[C@@H]1NC(=O)[C@H](CCCNC(=N)N)NC(=O)[C@H](CC(=O)O)NC(=O)[C@H](CC(C)C)NC(=O)[C@@H]2CCCN2C(=O)[C@H](CC(C)C)NC(=O)CNC(=O)[C@H](Cc2ccccc2)NC(=O)[C@@H](NC(=O)CNC(=O)[C@H](CCC(N)=O)NC(=O)[C@H](CO)NC(=O)[C@H](CC(C)C)NC(=O)CNC(=O)[C@H](CCCCN)NC(=O)[C@H](CCCCN)NC(=O)[C@H](CCC(N)=O)NC(=O)[C@H](C)NC(=O)CNC(=O)[C@H](CCCCN)NC(=O)[C@H](Cc2ccc(O)cc2)NC(=O)[C@H](CCCCN)NC(=O)[C@H](Cc2c[nH]cn2)NC(=O)[C@H](C)NC(=O)[C@H](CCC(N)=O)NC(=O)[C@@H]2CCCN2C(=O)[C@H](Cc2c[nH]cn2)NC(=O)[C@H](CCC(=O)O)NC(=O)[C@H](CCC(N)=O)NC(=O)COCCOCCNC(=O)COCCOCCNC(=O)CC[C@H](NC(=O)CC[C@H](NC(=O)CC[C@H](NC(=O)CCCCCCCCCCCCCCCCC(=O)O)C(=O)O)C(=O)O)C(=O)O)CSSC[C@@H](C(=O)O)NC(=O)CNC(=O)[C@H](CC(C)C)NC(=O)CNC(=O)[C@H](CO)NC(=O)[C@H](CC(C)C)NC(=O)[C@H](CO)NC(=O)CNC1=O` [compound 1382] ({C18 diacid-γGlu-γGlu-γGlu-AEEA-AEEA}-QEHPQAHKYKGAQKKGLSQGCFGLPLDRIGSLSGLGC-OH; disulfide 21-37), the solubility in data set [1] (setting [4]) stood at 3.18 mM (≈ 15.5 mg/mL). In addition, in data set [2], the “LagTime (h) at pH 6.5” value turned out to be 45 h. For the same compound, the “2-Week HMWP formation at pH 6.5 (%), % relative to total peak area” value in data set [3] came to 0%.

Turning to `CC[C@H](C)[C@@H]1NC(=O)[C@H](CCCNC(=N)N)NC(=O)[C@H](CC(=O)O)NC(=O)[C@H](CC(C)C)NC(=O)[C@@H]2CCCN2C(=O)[C@H](CC(C)C)NC(=O)CNC(=O)[C@H](Cc2ccccc2)NC(=O)[C@@H](NC(=O)CNC(=O)[C@H](CCC(N)=O)NC(=O)[C@H](CO)NC(=O)[C@H](CC(C)C)NC(=O)CNC(=O)[C@H](CCCCN)NC(=O)[C@H](CCCCN)NC(=O)[C@H](CCC(N)=O)NC(=O)[C@H](C)NC(=O)CNC(=O)[C@H](CCCCN)NC(=O)[C@H](Cc2ccc(O)cc2)NC(=O)[C@H](CCCCN)NC(=O)[C@H](CCCNC(=N)N)NC(=O)[C@H](C)NC(=O)[C@H](CCC(N)=O)NC(=O)[C@@H]2CCCN2C(=O)[C@H](Cc2c[nH]cn2)NC(=O)[C@H](CCC(=O)O)NC(=O)[C@H](CCC(N)=O)NC(=O)COCCOCCNC(=O)COCCOCCNC(=O)COCCOCCNC(=O)COCCOCCNC(=O)CC[C@H](NC(=O)CC[C@H](NC(=O)CC[C@H](NC(=O)CC[C@H](NC(=O)CC[C@H](NC(=O)CC[C@H](NC(=O)CCCCCCCCCCCCCCCCC(=O)O)C(=O)O)C(=O)O)C(=O)O)C(=O)O)C(=O)O)C(=O)O)CSSC[C@@H](C(=O)O)NC(=O)CNC(=O)[C@H](CC(C)C)NC(=O)CNC(=O)[C@H](CO)NC(=O)[C@H](CC(C)C)NC(=O)[C@H](CO)NC(=O)CNC1=O` [compound 1404] ({C18 diacid-γGlu-γGlu-γGlu-γGlu-γGlu-γGlu-AEEA-AEEA-AEEA-AEEA}-QEHPQARKYKGAQKKGLSQGCFGLPLDRIGSLSGLGC-OH; disulfide 21-37), in data set [1] (setting [4]), the solubility was found to be 6.88 mM (≈ 38.4 mg/mL). Moreover, the “LagTime (h) at pH 6.5” value in data set [2] amounted to 45 h. The “2-Week HMWP formation at pH 6.5 (%), % relative to total peak area” value in data set [3] turned out to be 1.8%.

Take `CC[C@H](C)[C@@H]1NC(=O)[C@H](CCCNC(=N)N)NC(=O)[C@H](CC(=O)O)NC(=O)[C@H](CC(C)C)NC(=O)[C@@H]2CCCN2C(=O)[C@H](CC(C)C)NC(=O)CNC(=O)[C@H](Cc2ccccc2)NC(=O)[C@@H](NC(=O)CNC(=O)[C@H](CO)NC(=O)[C@H](CO)NC(=O)[C@H](CC(C)C)NC(=O)CNC(=O)[C@H](CCCCN)NC(=O)[C@H](CCCCN)NC(=O)[C@H](CCC(N)=O)NC(=O)[C@H](C)NC(=O)CNC(=O)[C@H](CCC(=O)O)NC(=O)[C@H](Cc2ccc(O)cc2)NC(=O)COCCOCCNC(=O)COCCOCCNC(=O)COCCOCCNC(=O)COCCOCCNC(=O)CC[C@H](NC(=O)CCCCCCCCCCCCCCCCC(=O)O)C(=O)O)CSSC[C@@H](C(=O)O)NC(=O)CNC(=O)[C@H](CC(C)C)NC(=O)CNC(=O)[C@H](CO)NC(=O)[C@H](CC(C)C)NC(=O)[C@H](CO)NC(=O)CNC1=O` [compound 1392] ({C18 diacid-γGlu-AEEA-AEEA-AEEA-AEEA}-YEGAQKKGLSSGCFGLPLDRIGSLSGLGC-OH; disulfide 13-29): in data set [1] (setting [4]), the solubility was 9.88 mM (≈ 38.7 mg/mL). The “LagTime (h) at pH 6.5” value in data set [2] is 45 h. The “2-Week HMWP formation at pH 6.5 (%), % relative to total peak area” value in data set [3] was 0.33%.

Turning to `CC[C@H](C)[C@@H]1NC(=O)[C@H](CCCNC(=N)N)NC(=O)[C@H](CC(=O)O)NC(=O)[C@H](CC(C)C)NC(=O)[C@@H]2CCCN2C(=O)[C@H](CC(C)C)NC(=O)CNC(=O)[C@H](Cc2ccccc2)NC(=O)[C@@H](NC(=O)CNC(=O)[C@H](CCCCN)NC(=O)[C@H](CO)NC(=O)[C@H](CC(C)C)NC(=O)CNC(=O)[C@H](CCCCN)NC(=O)[C@H](CCCCN)NC(=O)[C@H](CCC(N)=O)NC(=O)[C@H](C)NC(=O)CNC(=O)[C@H](CCCCN)NC(=O)[C@H](Cc2ccc(O)cc2)NC(=O)[C@H](CCCCN)NC(=O)[C@H](CCCNC(=N)N)NC(=O)[C@H](C)NC(=O)[C@H](CCC(N)=O)NC(=O)[C@@H]2CCCN2C(=O)[C@H](Cc2c[nH]cn2)NC(=O)[C@H](CCC(=O)O)NC(=O)[C@H](CCC(N)=O)NC(=O)COCCOCCNC(=O)COCCOCCNC(=O)CC[C@H](NC(=O)CC[C@H](NC(=O)CC[C@H](NC(=O)CC[C@H](NC(=O)CC[C@H](NC(=O)CCCCCCCCCCCCCCCCC(=O)O)C(=O)O)C(=O)O)C(=O)O)C(=O)O)C(=O)O)CSSC[C@@H](C(=O)O)NC(=O)CNC(=O)[C@H](CC(C)C)NC(=O)CNC(=O)[C@H](CO)NC(=O)[C@H](CC(C)C)NC(=O)[C@H](CO)NC(=O)CNC1=O` [compound 1474] ({C18 diacid-γGlu-γGlu-γGlu-γGlu-γGlu-AEEA-AEEA}-QEHPQARKYKGAQKKGLSKGCFGLPLDRIGSLSGLGC-OH; disulfide 21-37; C-terminus assumed), the figures for the solubility in data set [1] (setting [5]) and in data set [1] (setting [4]) were 6.38 mM (≈ 32.9 mg/mL) and 0.969 mM (≈ 5 mg/mL), respectively. Moreover, the “LagTime (h) at pH 4.0” value in data set [2] came to 45 h. For the same compound, the “2-Week HMWP formation at pH 4.0 (%), % relative to total peak area” value in data set [3] came to 1.6%.

Take `CC[C@H](C)[C@@H]1NC(=O)[C@H](CCCNC(=N)N)NC(=O)[C@H](CC(=O)O)NC(=O)[C@H](CC(C)C)NC(=O)[C@@H]2CCCN2C(=O)[C@H](CC(C)C)NC(=O)CNC(=O)[C@H](Cc2ccccc2)NC(=O)[C@@H](NC(=O)CNC(=O)[C@H](CCC(N)=O)NC(=O)[C@H](CO)NC(=O)CNC(=O)CNC(=O)[C@H](CCCCN)NC(=O)[C@H](CCCCN)NC(=O)[C@H](CCC(N)=O)NC(=O)[C@H](C)NC(=O)CNC(=O)[C@H](CCCCN)NC(=O)[C@H](Cc2ccc(O)cc2)NC(=O)COCCOCCNC(=O)COCCOCCNC(=O)COCCOCCNC(=O)COCCOCCNC(=O)CC[C@H](NC(=O)CC[C@H](NC(=O)CCCCCCCCCCCCCCCCC(=O)O)C(=O)O)C(=O)O)CSSC[C@@H](C(=O)O)NC(=O)CNC(=O)[C@H](CC(C)C)NC(=O)CNC(=O)[C@H](CO)NC(=O)[C@H](CC(C)C)NC(=O)[C@H](CO)NC(=O)CNC1=O` [compound 9435] ({C18 diacid-γGlu-γGlu-AEEA-AEEA-AEEA-AEEA}-YKGAQKKGGSQGCFGLPLDRIGSLSGLGC-OH; disulfide 13-29; C-terminus assumed): the solubility in data set [1] (setting [5]) turned out to be 7.42 mM (≈ 29.9 mg/mL). In addition, the solubility in data set [1] (setting [4]) turned out to be 2.36 mM (≈ 9.5 mg/mL). Further, in data set [2], the “LagTime (h) at pH 6.5” value came out at 45 h and the “LagTime (h) at pH 4.0” value is given as 45 h. In data set [3], the “2-Week HMWP formation at pH 4.0 (%), % relative to total peak area” value came to 1.07% and the “2-Week HMWP formation at pH 6.5 (%), % relative to total peak area” value was determined as 1.93%.
